Assay results: ChEMBL document CHEMBL1150655, “Tupuseleiamides and basiliskamides, new acyldipeptides and antifungal polyketides produced in culture by a Bacillus laterosporus isolate obtained from a tropical marine habitat” (J Nat Prod, 2002)
≈ marks a conversion by molar mass, not a printed value.

Legend:
Aspergillus fumigatus = test: Antimicrobial activity against Aspergillus fumigatus by standard agar dilution method; type: functional
Candida albicans = test: Antimicrobial activity against Candida albicans by standard agar dilution method; type: functional
[1] = Cytotoxicity against human diploid fibroblast cells assessed as cytopathic effect at 12.5 ug/ml; type: cell-based
[2] = Cytotoxicity against human diploid fibroblast cells at 100 ug/ml; type: cell-based

| MIC (Aspergillus fumigatus) [mg/L] | MIC (Candida albicans) [mg/L] | SMILES | Activity [1] | Activity [2] |
| --- | --- | --- | --- | --- |
| 2.5 (≈ 6.49 µM) | 1 (≈ 2.59 µM) | CC[C@@H](C)[C@H](OC(=O)/C=C/c1ccccc1)[C@H](C)[C@H](O)C/C=C/C=C\C(N)=O [BASILISKAMIDE A] | – | – |
| – | – | C[C@@H]1[C@H](O)[C@@H](C)/C=C/C=C/C=C/C=C/C=C/C=C/C=C/[C@H](O[C@@H]2O[C@H](C)[C@@H](O)[C@H](N)[C@@H]2O)C[C@@H]2O[C@](O)(C[C@@H](O)C[C@@H](O)[C@H](O)CC[C@@H](O)C[C@@H](O)CC(=O)O[C@H]1C)C[C@H](O)[C@H]2C(=O)O [AMPHOTERICIN B] | Toxic | Toxic |
| 5 (≈ 13 µM) | 3.1 (≈ 8.04 µM) | CC[C@@H](C)[C@H](O)[C@H](C)[C@@H](C/C=C/C=C\C(N)=O)OC(=O)/C=C/c1ccccc1 [BASILISKAMIDE B] | – | – |
